This is an account of results in patent publication US11053213B2, “Pharmaceutical compounds” (ALMAC DISCOVERY LIMITED, priority 2016, dated 2021).

In this assay the target is USP19 (Homo sapiens (Human), UniProt O94966). Nature of the assay: USP19 activity assay (fluorescence polarisation, Ubiquitin-Lys-TAMRA substrate). The format is biochemical. Particulars: full-length USP19 2.5 nM, 30 min pre-incubation, Ub substrate 500 nM; average of at least two duplicate experiments. As to the method: Unless otherwise stated, all other reagents were purchased from Sigma. Enzymatic reactions were conducted in black flat bottom polystyrene 384-well plates (Nunc) and 30 μL total volume. […] Inhibitors were stored as 10 mM DMSO stocks in an inert environment (low humidity, dark, low oxygen, room temperature) using the Storage Pod System and serial dilutions were prepared in buffer just prior to the assay (from 200 μM to 2 pM, 8-18 data point curve). Following incubation at RT for 30 min, the enzymatic reactions were initiated by dispensing the Ub substrate (500 nM, 10 μL). FP was measured every 15 min over a period of 90 min (within the linear range of the assay) using a Synergy 4 plate reader (BioTek) exciting at 530 nm and measuring the amount of parallel and perpendicular light at 575 nm. The FP signal was subsequently normalised to the no compound control.
Sequence of USP19 (O94966 whole entry): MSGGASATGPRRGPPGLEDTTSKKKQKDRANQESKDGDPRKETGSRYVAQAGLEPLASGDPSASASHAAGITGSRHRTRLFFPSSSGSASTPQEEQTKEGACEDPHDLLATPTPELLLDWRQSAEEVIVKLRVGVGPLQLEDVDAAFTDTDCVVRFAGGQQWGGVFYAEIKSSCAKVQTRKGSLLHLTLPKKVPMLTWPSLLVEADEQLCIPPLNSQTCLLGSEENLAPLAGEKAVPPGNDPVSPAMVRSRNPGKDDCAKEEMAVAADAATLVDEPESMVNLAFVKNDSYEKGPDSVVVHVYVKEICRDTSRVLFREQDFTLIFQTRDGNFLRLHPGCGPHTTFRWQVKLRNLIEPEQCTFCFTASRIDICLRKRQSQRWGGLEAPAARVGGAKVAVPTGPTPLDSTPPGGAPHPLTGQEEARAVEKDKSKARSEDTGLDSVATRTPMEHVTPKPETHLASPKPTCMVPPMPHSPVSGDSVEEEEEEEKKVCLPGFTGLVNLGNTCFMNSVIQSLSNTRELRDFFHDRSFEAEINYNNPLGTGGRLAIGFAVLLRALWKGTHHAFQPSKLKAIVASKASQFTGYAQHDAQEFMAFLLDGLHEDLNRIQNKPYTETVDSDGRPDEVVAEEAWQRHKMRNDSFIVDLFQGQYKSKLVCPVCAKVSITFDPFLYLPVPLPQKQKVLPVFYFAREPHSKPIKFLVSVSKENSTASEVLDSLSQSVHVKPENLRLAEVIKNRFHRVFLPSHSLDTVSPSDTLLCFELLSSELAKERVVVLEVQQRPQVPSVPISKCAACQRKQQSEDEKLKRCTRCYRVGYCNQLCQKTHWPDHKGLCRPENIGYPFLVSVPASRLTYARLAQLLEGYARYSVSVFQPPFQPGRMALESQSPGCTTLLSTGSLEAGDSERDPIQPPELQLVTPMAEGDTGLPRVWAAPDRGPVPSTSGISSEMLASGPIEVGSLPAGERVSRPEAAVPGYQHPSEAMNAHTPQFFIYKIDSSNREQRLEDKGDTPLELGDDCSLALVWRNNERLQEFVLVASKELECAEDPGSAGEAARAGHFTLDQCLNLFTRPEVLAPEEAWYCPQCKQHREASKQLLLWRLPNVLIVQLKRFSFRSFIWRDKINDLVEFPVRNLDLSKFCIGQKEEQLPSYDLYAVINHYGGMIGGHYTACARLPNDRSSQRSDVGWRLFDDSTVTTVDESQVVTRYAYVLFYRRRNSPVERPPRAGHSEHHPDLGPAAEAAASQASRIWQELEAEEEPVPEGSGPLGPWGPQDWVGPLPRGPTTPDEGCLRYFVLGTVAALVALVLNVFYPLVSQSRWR
On the technique in general: In fluorescence polarisation assays a small probe gives low polarisation when free and higher when bound to something large.
The IC50 is the concentration needed to halve the response being measured. In the case of `CN(C)C(=O)c1cn(CC2(O)CCN(C(=O)C(C)(C)CC(F)F)CC23CCCC3)c(=O)cc1-c1ccccc1` (centres unmarked) [Example 244, 1-((7-(4,4-Difluoro-2,2-dimethylbutanoyl)-10-hydroxy-7-azaspiro[4.5]decan-10-yl)methyl)-N,N-dimethyl-6-oxo-4-phenyl-1,6-dihydropyridine-3-carboxamide], the IC50 fell in the range of 5 to 50 µM.

In the case of `C=C1CCC(C)(C(=O)N2CCC(O)(Cn3cnc(-c4ccccc4F)cc3=O)CC2)CC1` [Example 56, 6-(2-Fluorophenyl)-3-((4-hydroxy-1-(1-methyl-4-methylenecyclohexanecarbonyl)piperidin-4-yl)methyl)pyrimidin-4(3H)-one], the IC50 was 5 to 50 µM.

Consider `CC(=O)Nc1cccc(-c2cn(CC3(O)CCN(C(=O)C[C@@H](C)c4ccccc4)CC3)c(=O)cc2-c2ccccc2)c1` [Example 6, (R)—N-(3-(1-((4-Hydroxy-1-(3-phenylbutanoyl)piperidin-4-yl)methyl)-6-oxo-4-phenyl-1,6-dihydropyridin-3-yl)phenyl)acetamide], for which the IC50 was in the range of 5 to 50 µM.

For the molecule `C[C@@H]1CN(C(=O)c2cn(C[C@]3(O)CCN(C(=O)[C@H](C)CC4CCCCC4)CC3(C)C)c(=O)cc2-c2ccccc2)CCN1` [Example 213, 1-(((S)-1-((R)-3-Cyclohexyl-2-methylpropanoyl)-4-hydroxy-3,3-dimethylpiperidin-4-yl)methyl)-5-((R)-3-methylpiperazine-1-carbonyl)-4-phenylpyridin-2(1H)-one], the IC50 is < 0.5 µM.

For `CCOC(=O)c1cn(CC2(O)CCN(C(=O)C[C@@H](C)c3ccccc3)CC2)c(=O)cc1-c1ccccc1` [Example 13, (R)-Ethyl 1-((4-hydroxy-1-(3-phenylbutanoyl)piperidin-4-yl)methyl)-6-oxo-4-phenyl-1,6-dihydropyridine-3-carboxylate], the IC50 was in the range of 50 to 250 µM.

For `C[C@H](CC(=O)N1CCC(O)(Cn2nc(-c3ccccc3)c(-c3ccccc3)cc2=O)CC1)c1ccccc1` [Example 19, (R)-2-((4-Hydroxy-1-(3-phenylbutanoyl)piperidin-4-yl)methyl)-5,6-diphenylpyridazin-3(2H)-one], the IC50 lay within 5 to 50 µM.

As for `C[C@H](CC(=O)N1CCC(O)(Cn2cc(C(=O)N3CCC(CO)CC3)c(-c3ccccc3)cc2=O)CC1)c1ccccc1` [Example 117, (R)-1-((4-Hydroxy-1-(3-phenylbutanoyl)piperidin-4-yl)methyl)-5-(4-(hydroxymethyl)piperidine-1-carbonyl)-4-phenylpyridin-2(1H)-one], the IC50 was 0.5 to 5 µM.

Consider `CN(C)C(=O)c1cn(CC2(O)CCN(C(=O)c3ncoc3-c3ccccc3)CC23CCCC3)c(=O)cc1-c1ccccc1` (centres unmarked) [Example 192, 1-((10-Hydroxy-7-(5-phenyloxazole-4-carbonyl)-7-azaspiro[4.5]decan-10-yl)methyl)-N,N-dimethyl-6-oxo-4-phenyl-1,6-dihydropyridine-3-carboxamide], for which the IC50 is 5 to 50 µM.

Regarding `CN(C)C(=O)c1cn(CC2(O)CCN(C(=O)C34CCC(CC3)C4)CC23CCCC3)c(=O)cc1-c1ccccc1` (centres unmarked) [Example 179, 1-((7-(Bicyclo[2.2.1]heptane-1-carbonyl)-10-hydroxy-7-azaspiro[4.5]decan-10-yl)methyl)-N,N-dimethyl-6-oxo-4-phenyl-1,6-dihydropyridine-3-carboxamide], the IC50 lay in the range of 50 to 250 µM.

Turning to `O=C(C[C@H](c1ccccc1)C(F)(F)F)N1CCC(O)(Cn2cnc(-c3ccccc3F)cc2=O)CC1` [Example 48, (R)-6-(2-Fluorophenyl)-3-((4-hydroxy-1-(4,4,4-trifluoro-3-phenylbutanoyl)piperidin-4-yl)methyl)pyrimidin-4(3H)-one], the IC50 fell in the range of 50 to 250 µM.

As to `CC(=O)Nc1ccccc1-c1cc(=O)n(CC2(O)CCN(C(=O)C[C@@H](C)c3ccccc3)CC2)cn1` [Example 85, (R)—N-(2-(1-((4-Hydroxy-1-(3-phenylbutanoyl)piperidin-4-yl)methyl)-6-oxo-1,6-dihydropyrimidin-4-yl)phenyl)acetamide], the IC50 was in the range of 50 to 250 µM.

For the molecule `C[C@H](CC1CCCCC1)C(=O)N1CCC(O)(Cn2cnc(-c3ccccc3F)cc2=O)C2(CCCC2)C1` (stereo partly drawn) [Example 119, 3-((7-((R)-3-Cyclohexyl-2-methylpropanoyl)-10-hydroxy-7-azaspiro[4.5]decan-10-yl)methyl)-6-(2-fluorophenyl)pyrimidin-4(3H)-one], the IC50 was < 0.5 µM.

`C[C@H](CC(=O)N1CCC(O)(Cn2cc(C=O)c(-c3ccccc3)cc2=O)CC1)c1ccccc1` [Example 45, (R)-1-((4-Hydroxy-1-(3-phenylbutanoyl)piperidin-4-yl)methyl)-6-oxo-4-phenyl-1,6-dihydropyridine-3-carbaldehyde]: the IC50 lay in the range of 50 to 250 µM.

In the case of `C[C@H](CC(=O)N1CCC(O)(Cn2cc(C(=O)N3CCNCC3)c(-c3ccccc3)cc2=O)CC1)c1ccccc1` [Example 94, (R)-1-((4-Hydroxy-1-(3-phenylbutanoyl)piperidin-4-yl)methyl)-4-phenyl-5-(piperazine-1-carbonyl)pyridin-2(1H)-one], the IC50 was 0.5 to 5 µM.

Regarding `CN(C)C(=O)c1cn(CC2(O)CCN(C(=O)COC3CCCCC3)CC23CCCC3)c(=O)cc1-c1ccccc1` (centres unmarked) [Example 194, 1-((7-(2-(Cyclohexyloxy)acetyl)-10-hydroxy-7-azaspiro[4.5]decan-10-yl)methyl)-N,N-dimethyl-6-oxo-4-phenyl-1,6-dihydropyridine-3-carboxamide], the IC50 lay within 5 to 50 µM.

Consider `C[C@H](CC1CCCCC1)C(=O)N1C[C@H]2CC[C@@H](C1)C2(O)Cn1cnc(-c2ccccc2F)cc1=O` (stereo partly drawn) [Example 31, 3-(((1R,5S)-3-((R)-3-Cyclohexyl-2-methylpropanoyl)-8-hydroxy-3-azabicyclo[3.2.1]octan-8-yl)methyl)-6-(2-fluorophenyl)pyrimidin-4(3H)-one], for which the IC50 was 0.5 to 5 µM.

Turning to `C[C@H](CC(=O)N1CCC(O)(Cn2cc(C(=O)N3CCCCC3)c(-c3ccccc3)cc2=O)CC1)c1ccccc1` [Example 88, (R)-1-((4-Hydroxy-1-(3-phenylbutanoyl)piperidin-4-yl)methyl)-4-phenyl-5-(piperidine-1-carbonyl)pyridin-2(1H)-one], the IC50 lay in the range of 0.5 to 5 µM.

As to `CC(C)(CC(=O)N1CCC(O)(Cn2cnc(-c3ccccc3F)cc2=O)C(C)(C)C1)c1ccccc1` (racemic) [Example 70, (R,S)-6-(2-Fluorophenyl)-3-((4-hydroxy-3,3-dimethyl-1-(3-methyl-3-phenylbutanoyl)piperidin-4-yl)methyl)pyrimidin-4(3H)-one], the IC50 was 5 to 50 µM.

As for `CC(=O)N1CCN(C(=O)c2cn(CC3(O)CCN(C(=O)[C@H](C)CC4CCCCC4)CC3(C)C)c(=O)cc2-c2ccccc2)CC1` (stereo partly drawn) [Example 169, 5-(4-Acetylpiperazine-1-carbonyl)-1-((1-((R)-3-cyclohexyl-2-methylpropanoyl)-4-hydroxy-3,3-dimethylpiperidin-4-yl)methyl)-4-phenylpyridin-2(1H)-one], the IC50 was < 0.5 µM.

Turning to `C[C@H](CC1CCCCC1)C(=O)N1CCC(O)(Cn2cc(C(=O)N3CCNCC3)c(-c3ccccc3)cc2=O)C2(CCCCC2)C1` (stereo partly drawn) [Example 238, 1-((2-((R)-3-Cyclohexyl-2-methylpropanoyl)-5-hydroxy-2-azaspiro[5.5]undecan-5-yl)methyl)-4-phenyl-5-(piperazine-1-carbonyl)pyridin-2(1H)-one], the IC50 was < 0.5 µM.

For the molecule `CN(C)C(=O)c1cn(C[C@]2(O)CCN(C(=O)C(CC(F)(F)F)CC(F)(F)F)CC2(C)C)c(=O)cc1-c1ccccc1` [Example 207, (S)-1-((4-Hydroxy-3,3-dimethyl-1-(4,4,4-trifluoro-2-(2,2,2-trifluoroethyl)butanoyl)piperidin-4-yl)methyl)-N,N-dimethyl-6-oxo-4-phenyl-1,6-dihydropyridine-3-carboxamide], the IC50 fell in the range of 5 to 50 µM.

On to `C[C@H](CC1CC1)C(=O)N1CCC(O)(Cn2cc(C(=O)N(C)C)c(-c3ccccc3)cc2=O)C(C)(C)C1` (stereo partly drawn) [Example 129, 1-((1-((R)-3-Cyclopropyl-2-methylpropanoyl)-4-hydroxy-3,3-dimethylpiperidin-4-yl)methyl)-N,N-dimethyl-6-oxo-4-phenyl-1,6-dihydropyridine-3-carboxamide], for which the IC50 lay within 5 to 50 µM.

In the case of `C[C@H](CC1CCCCC1)C(=O)N1CCC(O)(Cn2cc(-c3ccccn3)c(-c3ccccc3F)cc2=O)C(C)(C)C1` (stereo partly drawn) [Example 154, 1′-((1-((R)-3-Cyclohexyl-2-methylpropanoyl)-4-hydroxy-3,3-dimethylpiperidin-4-yl)methyl)-4′-(2-fluorophenyl)-[2,3′-bipyridin]-6′(1′H)-one], the concentration for half-maximal inhibition (IC50) is 5 to 50 µM.

In the case of `C[C@H](CC(=O)N1CCC(O)(Cn2cnc(-c3ccccc3F)cc2=O)CC1)c1ccccc1` [Example 32, (R)-6-(2-Fluorophenyl)-3-((4-hydroxy-1-(3-phenylbutanoyl)piperidin-4-yl)methyl)pyrimidin-4(3H)-one], the IC50 lay within 5 to 50 µM.

As to `CC(C)N(C)C(=O)c1cn(CC2(O)CCN(C(=O)C[C@@H](c3ccccc3)C(F)F)CC2)c(=O)cc1-c1ccccc1` [Example 71, (S)-1-((1-(4,4-Difluoro-3-phenylbutanoyl)-4-hydroxypiperidin-4-yl)methyl)-N-isopropyl-N-methyl-6-oxo-4-phenyl-1,6-dihydropyridine-3-carboxamide], the IC50 was in the range of 5 to 50 µM.

With `C[C@H](CC1CCCCC1)C(=O)N1CC[C@@](O)(Cn2cc(C(=O)N3CCNC[C@H]3CO)c(-c3ccccc3)cc2=O)C(C)(C)C1` [Example 208, 1-(((S)-1-((R)-3-Cyclohexyl-2-methylpropanoyl)-4-hydroxy-3,3-dimethylpiperidin-4-yl)methyl)-5-((S)-2-(hydroxymethyl)piperazine-1-carbonyl)-4-phenylpyridin-2(1H)-one], the IC50 is < 0.5 µM.
